Measurements: patent US10980876B2, “Conjugate vaccine targeting a disease-causing biological protein” (OSAKA UNIVERSITY, priority 2016, dated 2021)
Where two headings read alike, the source gives them in different places.

Key:
[1] = tested on: DPP4; conditions: OSK-1-DPP4-17 100 μg/mouse; KLH-DPP4-17 20 μg/mouse mixed with Alum 1 mg/mouse; 4 administrations; 21 weeks; FIG. 8
Description: To a KLH-DPP4-17 group of mice, KLH-DPP4-17 and Alum (Alhydrogel 2% (InvivoGen)) were intracutaneously administered as a mixture at doses of 20 μg/mouse and 1 mg/mouse, respectively. To an OSK-1-DPP4-17 group of mice, OSK-1-DPP4-17 was intracutaneously administered at a dose of 100 μg/mouse. In either group, the conjugate was intracutaneously administered to Balb/c mice 3 times at 2-week intervals, and the 4th administration was performed at 11 weeks after the first administration. At 21 weeks after the first administration, blood samples were collected, and the amount of serum IgE antibody against DPP4 was measured by ELISA.

[2] = tested on: DPP4 epitope peptide
Description: For this test, the following two groups were prepared: a physiological saline group and an OSK-1-DPP4 conjugate group (100 μg/mouse) (6 animals per group). Test samples were intracutaneously administered to Balb/c mice 3 times at 2-week intervals. Before the first administration and every 2 weeks until 8 weeks after the first administration, blood samples were collected, and the antibody titer against the DPP4 epitope peptide was measured by ELISA.
For this test, the following three groups were prepared: a KLH-DPP4 conjugate group (20 μg/mouse), an OSK-1-DPP4 conjugate group (100 μg/mouse) and an OSK-1-DPP4 conjugate (100 μg/mouse) plus Alum (Alhydrogel 2% (InvivoGen) 1 mg/mouse) group (2 animals per group). […] Before the first administration, every 2 weeks until 6 weeks after the first administration, and 12 weeks after the first administration, blood samples were collected, and the antibody titer against the DPP4 epitope peptide was measured by ELISA.
Six types of OSK-1-DPP4 conjugates containing different mouse DPP4 epitope peptides (SEQ ID NOs: 3, 5, 6, 8, 18 and 19) were intracutaneously administered to Balb/c mice at a dose of 100 μg per animal 3 times at 2-week intervals. Before the first administration and every 2 weeks after the first administration, blood samples were collected, and the antibody titer against each epitope peptide was measured by ELISA. […]

[3] = tested on: DPP4 epitope peptide; conditions: 4 administrations; blood at 11 weeks; FIG. 3
Description: For this test, the following three groups were prepared: an OSK-1-DPP4 conjugate group (100 μg/mouse), a KLH-DPP4 conjugate (20 μg/mouse) plus Alum (Alhydrogel 2% (InvivoGen) 1 mg/mouse) group and a KLH-DPP4 conjugate (20 μg/mouse) plus OSK-1 (100 μg/mouse) group. Test samples were intracutaneously administered to Balb/c mice 3 times at 2-week intervals and at 9 weeks after the start of the administration, 4 times in total. At 11 weeks after the start of the administration, blood samples were collected, and the titer of each IgG subclass of antibodies against the DPP4 epitope peptide was measured by ELISA.

[4] = tested on: B16F10 melanoma cells; conditions: vaccination once a week 4 times before implantation of B16F10 (1×10^5 cells/mouse)
Description: In addition, the adjuvant effect of the OSK-1 peptide on the antitumor effect of a WT1 peptide vaccine was also examined. For this test, the following four groups were prepared: a physiological saline group, a WT1 peptide (100 μg/mouse) plus poly(I:C) (InvivoGen; Poly(I:C) HMW VacciGrade, 50 μg/mouse) group, a WT1 peptide (100 μg/mouse) plus OSK-1 peptide (100 μg/mouse) group and an OSK-1-WT1 conjugate (350 μg/mouse) group (6 animals per group). The vaccines were administered to C57BL/6J mice once a week, 4 times in total. One week after the 4th administration, B16F10 melanoma cells (1×10^5 cells/mouse) were implanted into the dorsal skin. The vaccines were administered again one week after the cell implantation. The body weight and the diameter of the tumor were measured twice a week after the cell implantation. The diameter of the tumor was measured using a digital caliper, and the tumor volume was calculated by the formula: (major axis)×(minor axis)^2.

[5] = tested on: B16F10 melanoma cells; conditions: 350 μg/mouse, vaccination started on day of implantation of B16F10 (3×10^5 cells/mouse)
Description: The antitumor effect of the same OSK-1-WT1 conjugate as used in Reference Example 1 was assessed. For this test, the following four groups were prepared: a physiological saline group, a WT1 peptide (100 μg/mouse) plus poly(I:C) (InvivoGen; Poly (I:C) HMW VacciGrade, 50 μg/mouse) group, an OSK-1-WT1 conjugate (350 μg/mouse) group and a cisplatin (5 mg/kg) group (10 animals per group). B16F10 melanoma cells (3×10^5 cells/mouse) were implanted to C57BL/6J mice, and at the same day, the vaccines were intracutaneously administered into the dorsal skin. The day of cell implantation was designated as Day 0. The vaccines were administered on Day 7, Day 14, Day 21, Day 28 and Day 35. Twice a week after the cell implantation, the diameter of the tumor was measured using a digital caliper, and the tumor volume was calculated by the formula: (major axis)×(minor axis)^2.

| Substance | IgE production against the target protein (serum IgE antibody against DPP4) [1] | antibody production against the DPP4 epitope peptide (antibody titer, ELISA) ([2]; 100 μg/mouse intracutaneously 3 times at 2-week intervals, blood until 8 weeks, FIG. 1) | antibody production-inducing capability (antibody titer against the DPP4 epitope peptide) ([2]; OSK-1-DPP4 100 μg/mouse, KLH-DPP4 20 μg/mouse, Alum 1 mg/mouse, 3 times at 2-week intervals, up to 12 weeks, FIG. 2) | titer of each IgG subclass of antibodies against the DPP4 epitope peptide [3] | inhibitory effect on tumor growth (tumor volume) ([4]; FIG. 4) | survival benefit (survival rate) ([4]; FIG. 5) | inhibitory effect on tumor growth (tumor volume) ([5]; FIG. 6) | survival benefit (survival rate) ([5]; FIG. 7) |
| --- | --- | --- | --- | --- | --- | --- | --- | --- |
| Ac-ELKLIFLHRLKRLRKRLKRK-X-ENSTFESFG (X=ε-Acp) [OSK1-DPP4-17] | no IgE production against the target protein was observed | antibody production against the DPP4 epitope peptide was observed | comparable to that of the KLH-DPP4 conjugate | IgG2a and IgG2b, which are Th1-type IgG subclasses, were also produced at high levels in addition to IgG1 |  |  |  |  |
| Ac-ELKLIFLHRLKRLRKRLKRK-X-RMFPNAPYL (X=ε-Acp) [OSK-1-WT1 conjugate] |  |  |  |  | the inhibitory effect on tumor growth and the survival benefit were observed | the inhibitory effect on tumor growth and the survival benefit were observed | modest, but the tumor volume was kept at lower levels than that of the physiological saline administration group (negative control) until Day 32 | comparable to those in the WT1 peptide plus poly(I:C) group and the cisplatin group |
